According to ChEMBL document CHEMBL1147720, “Discovery and initial SAR of inhibitors of interleukin-1 receptor-associated kinase-4” (Bioorg Med Chem Lett, 2006):

How the values were obtained:
[1] = target: T1, Interleukin-1 receptor-associated kinase 4 (Homo sapiens, UniProt Q9NWZ3); test: Inhibition of IRAK4
T1 sequence (Q9NWZ3 whole entry): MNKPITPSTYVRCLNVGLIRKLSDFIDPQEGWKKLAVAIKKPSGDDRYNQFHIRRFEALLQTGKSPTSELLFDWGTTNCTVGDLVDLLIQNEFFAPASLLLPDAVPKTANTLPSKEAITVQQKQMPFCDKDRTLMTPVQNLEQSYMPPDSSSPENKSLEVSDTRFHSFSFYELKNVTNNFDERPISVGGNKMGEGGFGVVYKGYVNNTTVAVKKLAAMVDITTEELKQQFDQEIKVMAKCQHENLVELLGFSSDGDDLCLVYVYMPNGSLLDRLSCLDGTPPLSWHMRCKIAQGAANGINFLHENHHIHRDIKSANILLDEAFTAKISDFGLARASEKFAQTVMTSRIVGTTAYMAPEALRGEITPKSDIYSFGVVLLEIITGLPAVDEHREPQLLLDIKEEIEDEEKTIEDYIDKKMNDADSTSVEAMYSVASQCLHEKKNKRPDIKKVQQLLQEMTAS

[2] = target: T2, Interleukin-1 receptor-associated kinase 4 (Homo sapiens) (UniProt Q9NWZ3); test: Inhibition of IRAK4 at 30 uM
T2 sequence (whole entry): T1 sequence (Q9NWZ3 whole entry)

HeLa = test: Antiproliferative activity against human HeLa cell line after 72 hrs; format: functional; settings: read-out: ED50 (the source's name)
[3] = target: Interleukin-1 receptor-associated kinase 1 (Homo sapiens, UniProt P51617); test: Inhibition of IRAK1
Sequence of Interleukin-1 receptor-associated kinase 1 (P51617 whole entry): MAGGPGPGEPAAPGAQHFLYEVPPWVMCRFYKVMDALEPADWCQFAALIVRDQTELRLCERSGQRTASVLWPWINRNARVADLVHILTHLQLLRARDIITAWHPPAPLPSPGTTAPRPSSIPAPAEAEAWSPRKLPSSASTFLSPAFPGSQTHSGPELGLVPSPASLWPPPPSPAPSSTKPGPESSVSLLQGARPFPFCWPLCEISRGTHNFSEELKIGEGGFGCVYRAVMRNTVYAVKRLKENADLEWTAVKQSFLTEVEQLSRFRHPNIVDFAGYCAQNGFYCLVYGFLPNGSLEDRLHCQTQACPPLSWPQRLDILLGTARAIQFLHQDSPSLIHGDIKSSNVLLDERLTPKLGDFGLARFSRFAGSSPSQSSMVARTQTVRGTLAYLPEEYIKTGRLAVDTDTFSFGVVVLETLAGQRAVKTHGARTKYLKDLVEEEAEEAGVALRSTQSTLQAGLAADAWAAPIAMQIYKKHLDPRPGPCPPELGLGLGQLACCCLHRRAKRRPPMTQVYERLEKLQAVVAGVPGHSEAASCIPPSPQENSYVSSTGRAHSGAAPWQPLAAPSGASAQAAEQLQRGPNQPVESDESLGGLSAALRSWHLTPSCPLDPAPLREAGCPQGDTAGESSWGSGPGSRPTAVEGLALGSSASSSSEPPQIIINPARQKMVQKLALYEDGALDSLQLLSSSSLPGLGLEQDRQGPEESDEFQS

Row | IC50 [1] | SMILES | other results
1 | 1.5 µM | COc1ccc2nc(NC(=O)c3cccc([N+](=O)[O-])c3)[nH]c2c1 | –
2 | 1 µM | COCCn1c(NC(=O)c2cccc([N+](=O)[O-])c2)nc2ccccc21 | –
3 | 8 µM | Cc1cc2nc(NC(=O)c3cccc([N+](=O)[O-])c3)[nH]c2cc1C | –
4 | 1 µM | CC(C)n1c(NC(=O)c2cccc([N+](=O)[O-])c2)nc2ccccc21 | –
5 | 0.55 µM | O=C(Nc1nc2ccccc2n1C1CCOC1=O)c1cccc([N+](=O)[O-])c1 (stereo unspecified) | –
6 | 2 µM | CCn1c(NC(=O)c2cccc([N+](=O)[O-])c2)nc2ccccc21 | –
7 | 4 µM | O=C(Nc1nc2ccccc2[nH]1)c1cccc([N+](=O)[O-])c1 | –
8 | 4 µM | CN(C)CCCn1c(NC(=O)c2cccc([N+](=O)[O-])c2)nc2ccccc21 | –
9 | 0.4 µM | O=C(Nc1nc2ccccc2n1CCO)c1cccc([N+](=O)[O-])c1 | –
10 | 2 µM | O=C(Nc1nc2ccccc2n1CCC1CCC1)c1cccc([N+](=O)[O-])c1 | –
11 | 25 µM | COC(=O)c1ccc2[nH]c(NC(=O)c3cccc([N+](=O)[O-])c3)nc2c1 | –
12 | 4.5 µM | O=C(Nc1nc2ccc(F)cc2[nH]1)c1cccc([N+](=O)[O-])c1 | –
13 | 30 µM | CCCCn1c(NC(=O)c2cccc(Cl)c2)nc2ccccc21 | –
14 | 4 µM | O=C(O)CCn1c(NC(=O)c2cccc([N+](=O)[O-])c2)nc2ccccc21 | –
15 | 13.6 µM | N#Cc1cccc(C(=O)Nc2nc3ccccc3[nH]2)c1 | –
16 | 2 µM | CCOCCn1c(NC(=O)c2cccc([N+](=O)[O-])c2)nc2ccccc21 | –
17 | 6.5 µM | O=C(Nc1nc2ccccc2[nH]1)c1ccc(F)c([N+](=O)[O-])c1 | –

Continued, compound first:

Row | SMILES | IC50 [1] | other results
18 | CCOC(=O)CCn1c(NC(=O)c2cccc([N+](=O)[O-])c2)nc2ccccc21 | 1 µM | –
19 | CCN(CC)CCn1c(NC(=O)c2cccc([N+](=O)[O-])c2)nc2ccccc21 | 3 µM | –
20 | O=C(O)Cn1c(NC(=O)c2cccc([N+](=O)[O-])c2)nc2ccccc21 | – | inhibition [2]: 38%
21 | CN(C(=O)c1cccc([N+](=O)[O-])c1)c1nc2ccccc2n1C1CCOC1=O (stereo unspecified) | > 30 µM | –
22 | O=C(Nc1nc2ccccc2n1CCN1CCOCC1)c1cccc([N+](=O)[O-])c1 | 0.2 µM | EC50 (HeLa): > 30 µM; IC50 [3]: 0.3 µM
23 | O=C(Nc1nc2c([N+](=O)[O-])cccc2[nH]1)c1cccc([N+](=O)[O-])c1 | – | inhibition [2]: 25%
24 | CCCCn1c(NC(=O)c2ccc(Cl)c(Cl)c2)nc2ccccc21 | 3 µM | –
25 | O=C(Nc1nc2ccccc2n1CC1CCCO1)c1cccc([N+](=O)[O-])c1 (stereo unspecified) | 0.5 µM | –
26 | CCCCCn1c(NC(=O)c2cccc([N+](=O)[O-])c2)nc2ccccc21 | 20 µM | –
27 | Cc1ccc(C(=O)Nc2nc3ccccc3[nH]2)cc1[N+](=O)[O-] | 12 µM | –
28 | CCCS(=O)(=O)c1ccc2[nH]c(NC(=O)c3cccc([N+](=O)[O-])c3)nc2c1 | 4 µM | –
29 | O=C(Nc1nc2c(F)c(F)ccc2[nH]1)c1cccc([N+](=O)[O-])c1 | – | inhibition [2]: 24%
30 | C=CCN(C(=O)c1cccc([N+](=O)[O-])c1)c1nc2ccccc2n1CC=C | > 30 µM | –
31 | CCCCn1c(NC(=O)c2cccc([N+](=O)[O-])c2)nc2ccccc21 | 2 µM | –
32 | CCCCn1c(NC(=O)c2ccc([N+](=O)[O-])cc2)nc2ccccc21 | – | inhibition [2]: 8%
33 | O=[N+]([O-])c1cccc(CNc2nc3ccccc3[nH]2)c1 | – | inhibition [2]: 8%
34 | C=CCn1c(NC(=O)c2cccc([N+](=O)[O-])c2)nc2ccccc21 | 1 µM | –
35 | O=C(Nc1nc2ccc(Cl)cc2[nH]1)c1cccc([N+](=O)[O-])c1 | 6 µM | –
36 | O=C(Nc1nc2ccccc2s1)c1cccc([N+](=O)[O-])c1 | – | inhibition [2]: 11%
37 | O=C(Nc1nc2cc[nH]cc-2n1)c1cccc([N+](=O)[O-])c1 | 30 µM | –
38 | O=C(Nc1nc2cc(F)c(F)cc2[nH]1)c1cccc([N+](=O)[O-])c1 | 30 µM | –
39 | O=[N+]([O-])c1cccc(S(=O)(=O)Nc2nc3ccccc3[nH]2)c1 | – | inhibition [2]: 45%
40 | O=C(Nc1cccc([N+](=O)[O-])c1)Nc1nc2ccccc2[nH]1 | – | inhibition [2]: 15%
41 | Cc1ccc2nc(NC(=O)c3cccc([N+](=O)[O-])c3)[nH]c2c1 | 0.8 µM | –
42 | O=C(Nc1nc2ccc[nH]c-2n1)c1cccc([N+](=O)[O-])c1 | – | inhibition [2]: 39%
43 | O=C(Nc1nc2cc(Cl)c(Cl)cc2[nH]1)c1cccc([N+](=O)[O-])c1 | – | inhibition [2]: 10%
44 | O=C(Nc1nc2cc([N+](=O)[O-])ccc2[nH]1)c1cccc([N+](=O)[O-])c1 | – | inhibition [2]: 29%
45 | O=C(Nc1nc2ccccc2[nH]1)c1ccccc1 | – | inhibition [2]: 11%
46 | CCCCn1c(NC(=O)c2ccc(OC)cc2)nc2ccccc21 | 6.5 µM | –
47 | CCOC(=O)Cn1c(NC(=O)c2cccc([N+](=O)[O-])c2)nc2ccccc21 | 0.4 µM | EC50 (HeLa): > 30 µM; IC50 [3]: 0.75 µM
